Reference: ChEMBL document CHEMBL5346964, “Discovery of LNP1892: A Precision Calcimimetic for the Treatment of Secondary Hyperparathyroidism” (J Med Chem, 2023)

Columns and labels:
Rattus norvegicus [1] = assay: Acute effect on parathyroid hormone in overnight fasted adenine diet-induced chronic kidney disease Wistar rat model assessed as reduction in plasma PTH level at 3 mg/kg, po measured after 1 hrs of post treatment by sandwich ELISA analysis; type: functional; set-up: scale not given: the % may be the effect or the level left
[2] = AUClast in Sprague-Dawley rat at 10 mg/kg, po administered as solution measured upto 24 hrs by LC-MS/MS analysis; type: ADME, organism-based; set-up: dose 10 mg/kg, time < 24 hrs, route po; conditions: in vivo
[3] = Oral bioavailability in Sprague-Dawley rat at 10 mg/kg administered as suspension measured upto 24 hrs by LC-MS/MS analysis; type: ADME, organism-based; conditions: in vivo
[4] = Chemical stability of the compound in SGF measured after 0.5 to 4 hrs; type: physicochemical; conditions: simulated gi fluid; time 0.5-4 hrs
[5] = Effect on parathyroid hormone in overnight fasted Sprague-Dawley rat assessed as reduction in plasma PTH level at 3 mg/kg, po measured after 0.5 hrs of post treatment by sandwich ELISA analysis; type: functional; set-up: scale not given: the % may be the effect or the level left
Rattus norvegicus [6] = assay: Effect on parathyroid hormone in po dosed overnight fasted Sprague-Dawley rat assessed as reduction in plasma PTH level measured after 0.5 to 6 hrs of post treatment by sandwich ELISA analysis; type: functional, organism-based; conditions: dose 3-30 mg/kg, time 0.5-6 hrs
[7] = Tmax in Beagle dog at 5 mg/kg, po measured upto 24 hrs by LC/MS-MS analysis; type: ADME, organism-based, Canis lupus familiaris; conditions: in vivo
Rattus norvegicus [8] = assay: Acute effect on parathyroid hormone in overnight fasted adenine diet-induced chronic kidney disease Wistar rat model assessed as reduction in plasma PTH level at 10 mg/kg, po measured after 1 hrs of post treatment by sandwich ELISA analysis; type: functional; set-up: scale not given: the % may be the effect or the level left
[9] = Kinetic solubility of compound upto 500 uM at pH 9 measured after 16 hrs under shaking condition by UV-visible method; type: physicochemical; conditions: buffer, read-out: Kinetic_solubility
CYP1A2 = biological target: T1, CYP1A2 (Homo sapiens, UniProt P05177); assay: Inhibition of CYP1A2 in human liver microsomes at 10 uM preincubated for 5 mins followed by NADPH addition by LC-MS/MS analysis relative to control; type: ADME, Microsome
T1 sequence (P05177 whole entry): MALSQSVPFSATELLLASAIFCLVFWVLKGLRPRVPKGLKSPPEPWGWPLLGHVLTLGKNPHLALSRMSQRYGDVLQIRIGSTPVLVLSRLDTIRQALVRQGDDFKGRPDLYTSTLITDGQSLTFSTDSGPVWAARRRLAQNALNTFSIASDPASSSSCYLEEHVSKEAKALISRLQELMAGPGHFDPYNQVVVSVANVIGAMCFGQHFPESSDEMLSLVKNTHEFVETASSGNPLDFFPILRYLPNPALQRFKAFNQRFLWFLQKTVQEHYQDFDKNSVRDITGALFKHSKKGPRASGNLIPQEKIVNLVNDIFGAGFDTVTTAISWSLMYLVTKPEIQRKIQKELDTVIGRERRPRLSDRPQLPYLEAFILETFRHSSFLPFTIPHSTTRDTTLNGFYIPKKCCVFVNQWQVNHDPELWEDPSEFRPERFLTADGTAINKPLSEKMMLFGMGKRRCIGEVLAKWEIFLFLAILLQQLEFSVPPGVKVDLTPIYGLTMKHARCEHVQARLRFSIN

[10] = Cmax in mouse at 50 mg/kg per day, po via gavage administered for 13 weeks; type: ADME, organism-based; set-up: time 13 weeks, dose 50 mg/kg, route po; conditions: in vivo
Rattus norvegicus [11] = assay: Acute effect on parathyroid hormone in overnight fasted adenine diet-induced chronic kidney disease Wistar rat model assessed as reduction in plasma PTH level at 1 mg/kg, po measured after 2 hrs of post treatment by sandwich ELISA analysis; type: functional; set-up: scale not given: the % may be the effect or the level left
[12] = Chemical stability of the compound in FaSSIF measured after 0.5 to 4 hrs; type: physicochemical; conditions: simulated gi fluid; time 0.5-4 hrs
[13] = Cmax in Sprague-Dawley rat at 10 mg/kg; type: ADME, organism-based; set-up: dose 10 mg/kg; conditions: in vivo
[14] = Stability in dog plasma measured up to 4 hrs by LC-MS/MS method; type: ADME, cell-free, Canis lupus familiaris; conditions: read-out: Stability
[15] = Cmax in Sprague-Dawley rat at 10 mg/kg, po measured upto 24 hrs by LC/MS-MS analysis; type: ADME, organism-based; set-up: dose 10 mg/kg, time < 24 hrs, route po; conditions: in vivo
[16] = Volume of distribution at steady state in Sprague-Dawley rat at 10 mg/kg, po administered as solution measured upto 24 hrs by LC-MS/MS analysis; type: ADME, organism-based; conditions: in vivo
[17] = Tmax in Sprague-Dawley rat at 30 mg/kg; type: ADME, organism-based; conditions: in vivo
[18] = Cmax in human at 25 mg/kg, po administered as single dose; type: ADME, organism-based; set-up: dose 25 mg/kg, route po; conditions: in vivo
[19] = Effect on parathyroid hormone in overnight fasted Sprague-Dawley rat assessed as reduction in plasma PTH level at 10 mg/kg, po measured after 4 hrs of post treatment by sandwich ELISA analysis (reference value: 18%); type: functional; set-up: scale not given: the % may be the effect or the level left
[20] = Cmax in Sprague-Dawley rat at 30 mg/kg; type: ADME, organism-based; set-up: dose 30 mg/kg; conditions: in vivo
[21] = Ratio of drug concentration in brain to plasma in Sprague-Dawley rat at 10 mg/kg, po measured upto 24 hrs by LC-MS/MS analysis; type: ADME, organism-based; conditions: read-out: BPR
[22] = Metabolic stability in dog liver S9 fraction measured upto 60 mins by LC-MS/MS method; type: ADME, subcellular, Canis lupus familiaris; conditions: read-out: Stability
[23] = AUClast in Sprague-Dawley rat at 10 mg/kg, po administered as suspension measured upto 24 hrs by LC-MS/MS analysis; type: ADME, organism-based; set-up: dose 10 mg/kg, time < 24 hrs, route po; conditions: in vivo
[24] = Metabolic stability in rat liver S9 fraction measured upto 60 mins by LC-MS/MS method; type: ADME, subcellular; conditions: read-out: Stability
[25] = Plasma clearance in BALB/c mouse at 1 mg/kg, iv measured upto 24 hrs by LC/MS-MS analysis; type: ADME, organism-based
[26] = Kinetic solubility of compound upto 500 uM in 0.1N NaOH measured after 16 hrs under shaking condition by UV-visible method; type: physicochemical; conditions: read-out: Kinetic_solubility
[27] = Kinetic solubility of compound upto 500 uM at pH 4 measured after 16 hrs under shaking condition by UV-visible method; type: physicochemical; conditions: buffer, read-out: Kinetic_solubility
[28] = AUC in Sprague-Dawley rat at 10 mg/kg, po measured upto 24 hrs by LC/MS-MS analysis; type: ADME, organism-based; set-up: time < 24 hrs, dose 10 mg/kg, route po; conditions: in vivo
[29] = AUC(0 to t) in human at 25 mg/kg, po administered as multiple dose on day 8; type: ADME, organism-based; set-up: dose 25 mg/kg, route po; conditions: in vivo
[30] = Plasma clearance in Beagle dog at 1 mg/kg, iv measured upto 24 hrs by LC/MS-MS analysis; type: ADME, organism-based, Canis lupus familiaris
[31] = Oral bioavailability in Sprague-Dawley rat at 10 mg/kg measured upto 24 hrs by LC/MS-MS analysis; type: ADME, organism-based; conditions: in vivo
[32] = Metabolic stability in human liver cytosol measured upto 60 mins by LC-MS/MS method; type: ADME, subcellular; conditions: read-out: Stability
[33] = Genotoxicity in Salmonella typhimurium by Ames test; type: toxicity; conditions: salmonella enterica subsp. enterica serovar typhimurium
[34] = Stability in monkey plasma measured up to 4 hrs by LC-MS/MS method; type: ADME, cell-free, Macaca mulatta; conditions: rhesus monkey, read-out: Stability
[35] = Cmax in Sprague-Dawley rat at 10 mg/kg, po administered as suspension measured upto 24 hrs by LC-MS/MS analysis; type: ADME, organism-based; set-up: dose 10 mg/kg, time < 24 hrs, route po; conditions: in vivo
[36] = Drug excretion in BALB/c mouse assessed as drug recovery in feces at 1 mg/kg, iv; type: ADME, organism-based; conditions: faeces, read-out: Drug recovery
[37] = Half life in Sprague-Dawley rat at 1 mg/kg, iv measured upto 24 hrs by LC/MS-MS analysis; type: ADME, organism-based; conditions: in vivo

For `Cc1ccc([C@@H]2C[C@H](CN[C@H](C)c3cccc4ccccc34)Oc3ccccc32)cc1C(=O)O.Cl`, the Activity (Rattus norvegicus [1]) was 96%, the AUC(0-t) at 24 h [2] was 71 µM·h and the bioavailability [3] was 33%. For the same compound, the Stability [4] was “Stable”, the Activity [5] was 100% and the Activity (Rattus norvegicus [6]) was “Dose-Dependent Effect”. For the same compound, the Tmax [7] was 42 min, the Activity (Rattus norvegicus [8]) was 96% and the solubility kinetic at 16 h, 500 µM [9] was over 200 µM. It also gave an inhibition at 10 µM (CYP1A2) of 0%, a Cmax [10] of 34800 ng/mL and an Activity (Rattus norvegicus [11]) of 95%. The Stability [12] was “Stable”, the Cmax [13] was 4 µM and the remaining at 4 h [14] was over 80%. The Cmax [15] was 14 µM, the Vdss [16] was 0.6 L/kg and the Tmax [17] was 30 min. It also gave a Cmax [18] of 367 ng/mL, an Activity [19] of 88% and a Cmax [20] of 24 µM. It also gave a Kp at 24 h [21] of 0.2, a remaining at 1 h [22] of over 80% and an AUC(0-t) at 24 h [23] of 23 µM·h. The remaining at 1 h [24] was over 80%, the clearance [25] was 2.6 mL/min/kg and the solubility kinetic at 16 h, 500 µM [26] was over 300 µM. It also gave a solubility kinetic at 16 h, 500 µM [27] of over 300 µM, an AUC at 24 h [28] of 71 µM·h and an AUC(0-t) [29] of 5090 ng·h/mL. It also gave a clearance [30] of 2 mL/min/kg, a bioavailability [31] of 99% and a remaining at 1 h [32] of over 80%. For the same compound, the Activity [33] was “Non-Toxic”, the remaining at 4 h [34] was over 80% and the Cmax [35] was 4 µM. The dose excreted [36] was 27% and the half-life [37] was 240 min.
